Assay results taken from article PMC6838142, “Nano-Antagonist Alleviates Inflammation and Allows for MRI of Atherosclerosis” (Nanotheranostics, 2019).
“Also recorded” adds a separate entry of the source.

Columns and labels:
[1] = system: CCR2; assay: Uptake in macrophages from CCR2 knockout mice; format: cell-based, mouse; settings: CCR2 KO vs wild-type, carboxyfluorescein-labeled
Description: (§1) Supplementary Figure S6. A) Separate channels for main manuscript Figure 1B.
(§2) Uptake of carboxyfluorescein-labeled CCTV or VTCC in cultured bone marrow derived macrophages from B)
(§3) CCR2 knockout (KO, B6.129S4-Ccr2 /J) or wild-type (WT) mice; C) wild-type mouse-derived macrophages
(§4) pre-treated (6 h) with CCR2 inhibitor BMS CCR2 22 (10 nM) or DMSO as vehicle control. C)
(§5) (1 picture or pasted object on this page, not shown here)

[2] = system: recombinant CCR2 protein; assay: CCR2 receptor binding of nanoparticles to immobilized recombinant CCR2; design: species or system human; settings: recombinant CCR2 2 µg/mL coated; nanoparticles 4 h room temperature; fluorescence 550/620 nm
Description: A sandwich-type plate-based immunoassay was developed in-house to study CCR2 receptor binding. Black opaque plates (for fluorescence studies) or clear high protein binding plates (for absorbance studies) were coated with recombinant CCR2 protein at 2 µg/mL in PBS overnight at 4 °C. Plates were washed 5 times with PBS and treated as follows: for nanoparticles binding, varying concentrations of fluorescent nanoparticles or vehicle control (see above) in PBS were added to the opaque plates and incubated for 4 h at room temperature. For peptide competition/binding studies, recombinant human CCL2 was added in clear plates at varying concentrations in PBS simultaneously with a large excess of peptides (1 mM final concentration, dissolved in dimethylformamide) and incubated for 1 h at room temperature. All plates were washed 5 times with PBS and fluorescence in opaque plates was read at 550 nm excitation and 620 nm emissions. […] Clear plates were washed and incubated with 0.1 µg/mL streptavidin-HRP. Finally, clear plates were washed and incubated with SigmaFast OPD reagent in the presence of hydrogen peroxide-urea, as per the manufacturer's instructions. After 30 min incubation period at 37 °C, the plates were read at 450 nm on a multiwell plate reader as described above. Fluorescence emission values and OD at 450 nm were plotted against concentration using a 4-parametric fit.

[3] = system: NLRP3 inflammasome (J774 cells); assay: Inflammasome activation immunoblot in J774 cells; format: cell-based, mouse; settings: additional activator ATP 1 mM
Description: BMDMs or J774 cells were plated in 48-well plates at 2 x 10^5 per well. Next day, the medium was changed to Opti-MEM (100 μL per well) without serum and the cells were allowed to equilibrate for 3 h. Next, the cells were pretreated with the indicated concentrations of nanoparticles or controls for 3 h followed by the addition of LPS to some wells to the final LPS concentration of 50 ng/mL. LPS priming continued for another 2 h, following which DMSO (vehicle), Nigericin (5 μM) or adenosine triphosphate (ATP) (1 mM) were added to some wells. Cells were incubated for an additional 30 min and cell culture supernatants were collected on ice. Cells were washed with cold PBS once and lysed/processed as described in immunoblotting section. The supernatants (90 μL) were mixed with 10 μL of 10x SDS loading buffer (10% SDS, 10% Ficoll 400, 0.5 M Tris pH 6.8, 0.5 M DTT, and 0.001% bromophenol blue) and heat-denatured as described in the immunoblotting section. Supernatants were loaded at 45 μL per lane on Bio Rad TGX Criterion 12+2 gels (4-20%) and lysates were loaded at 15 μg per lane. Immunoblotting was performed as described above.
Supplementary Figure S10. Inflammasome activation assays in J774 cells. The cells were treated as described in Methods and main text Figure 5 legend, plus additional inflammasome activator ATP that was added at 1 mM. Immunoblot was performed as described in methods. […]

[4] = system: nanoparticle-targeted cells in atherosclerotic plaque; assay: mRNA analysis of laser-captured nanoparticle-positive plaque areas; format: in vivo, mouse; settings: single dose, 24 h, CCTV vs VTCC, 3-4 animals
Description: Twenty-four hours after nanoparticle injection (see above), mice were euthanized and abdominal aortas were isolated and embedded in Optimal Cutting Temperature compound. After cryotome-sectioning, resulting in 20-30 slides per mouse, 15 slides were sent to Ohio State laser capture microdissection core lab for capture and analysis. The rest of the slides were processed as follows: after fixation in methanol:acetone 50:50 at -20 °C, slides were hydrated in PBS, blocked for 30 min in fish serum (Aqua Block) and stained for 1 h with primary antibodies against F4/80 followed washing and staining with HRP-conjugated secondary antibody for 30 min. DAB peroxidase kit was then used as per manufacturer's instructions followed by mounting. DAB and antibody staining (but not wash steps) was omitted in slides designated for nanoparticle fluorescence visualization. Nanoparticles fluorescence was visualized with Zeiss 510 LSM-meta confocal microscope and 20x objective. DAB F4/80 staining was visualized with Nikon FN1 microscope and same power objective.

[5] = system: CCR2; assay: Uptake in wild-type macrophages pre-treated with CCR2 inhibitor; format: cell-based, mouse; settings: BMS CCR2 22 10 nM, 6 h pre-treatment vs DMSO
Description: as §1, §2, §3, §4, §5

[6] = system: RAW 264.7 cells; assay: Gene expression analysis in LPS-stimulated RAW cells; format: cell-based, mouse; settings: 1 µM, 24 h, LPS 100 ng/mL; vs VTCC or vehicle
Description: RAW 264.7 cells were seeded in 24-well plates at 1.0 x 10^5 per well with LPS (100 ng/mL) and allowed to attach overnight. After a quick wash with PBS, RNA was isolated from cells following the Trizol method. Next, RNA was reverse transcribed to cDNA, and amplified by the polymerase chain reaction (PCR) using reagents from cDNA synthesis kit, SYBR Green PCR Master Mix and target-specific TaqMan probes as indicated in Supplementary Table S1. Roche LightCycler 480 II was used to perform quantification analysis of gene expression using the ΔΔCT method as previously described,[13],[16].

[7] = system: cytokines in cell culture supernatants; assay: Cytokine analysis, Luminex panel; format: cell-based, mouse
Description: Cytokines were analyzed by EVE Technologies (https://www.evetechnologies.com) using the Luminex 31-Plex kit. Cell culture supernatants were diluted twice with PBS and provided in biological triplicates to EVE Technologies via overnight shipment in dry ice. Individual IL-1β and TNFɑ assays were performed using Perkin Elmer AlphaLISA kits, as per Supplementary Table S1 and vendor instructions.

CCTV was tested, and the “uptake in CCR2 knockout macrophages” value [1] was “drastically reduced”, the “binding to immobilized CCR2” value [2] was “bound to immobilized recombinant receptor protein in a dose dependent manner; also recorded: significant, dose-dependent binding” and the “inflammasome deactivation in J774 cells” value [3] was “reproducible in J774 cells”. The “Arg1 mRNA in nanoparticle-targeted plaque cells” value [4] was “slightly upregulated in CCTV-targeted cells, however this was not significant”, the “Ccl2 mRNA in nanoparticle-targeted plaque cells” value [4] was “downregulated” and the “Il6 mRNA in nanoparticle-targeted plaque cells” value [4] was “downregulated”. For the same substance, the “uptake in macrophages pre-treated with BMS CCR2 22” value [5] was “drastically reduced”, the “Il1b mRNA expression” value [6] was “significantly downregulated” and the “Il6 mRNA expression” value [6] was “significantly downregulated”. The “Nos2 mRNA expression” value [6] was “significantly downregulated”, the “Tnf mRNA expression” value [6] was “unaffected” and the “levels of 14 cytokines in supernatants” value ([7]; Luminex inflammation array) was “did not detect significant differences among 14 different cytokines”. The IL-6 cytokine ([7]; not statistically significant) was “trend in CCTV-induced downregulation” and the IL-12p40 cytokine ([7]; not statistically significant) was “though to a lesser extent”.
